Literature values as cited in patent US7786119B2, “Drug conjugates of ion channel modulating compounds” (Cardiome Pharma Corp., priority 2004, dated 2010).

Assays:
[1] = optically pure d-sotalol; SWORD study

| Compound | increased mortality compared to placebo [1] [%] | risk of ventricular proarrhythmia (estimated) [%] | patients requiring cardioversion for refractory ventricular arrhythmias (in vivo) [%] |
| --- | --- | --- | --- |
| CC(C)NC[C@@H](O)c1ccc(NS(C)(=O)=O)cc1 [d-sotalol] | 65 |  |  |
| CCCCCCCN(CC)CCCC(O)c1ccc(NS(C)(=O)=O)cc1 (stereo not drawn) [ibutilide] |  | ~4.4 | ~1.7 |
